Measured values published in patent US20170252442A1, “PHOTOHEXER COMPOUNDS AND PHARMACEUTICAL COMPOSITION AND USE THEREOF” (RAINBOW PHARMATECH LLC, priority 2014, published 2017).

Key:
[1] = tested on: SGC7901 cells; assay: MTT assay, photodynamic therapy on SGC7901 cells; type: cell-based, human; conditions: for killing effect of photodynamic therapy: drug-dose and light-intensity dependent
Text: (§1) The cells in logarithmic growth phase were collected and inoculated on 24-well culture plates. When reaching 70%-80% confluence, cells were divided randomly into the following groups: control (the parallel control group without photosensitizer and irradiation), irradiation (irradiation treatment alone without photosensitizer); (photosensitizer treatment alone without irradiation), photodynamic treatment (treatment by photosensitizer in combination with irradiation). For the photosensitizer alone treatment group and photodynamic treatment group, an appropriate amount of Photohexer-1 (P-1) or Photohexer-2 (P-2) was respectively added away from light to give a final concentration of 0.8, 1.6, 3.2, 6.4 μM. Each group set 3 replicates. Cells were incubated with the active agent, different treatments were carried out according to the grouping. […] After treatment and digestion of each group of cells, it was inoculated into a 96-well plate at 100 μL/well, and four wells were set for each treatment. MTT assay was performed after 24 h from inoculation: 20 μL MTT solution was added to each well under the condition away from light, and the culture was continued for 4 hours. 150 μL DMSO was added to each well after discarding the supernatant. After 15 min of dissolution, the absorbance value (OD value) was measured using a microplate reader and the relative survival rate of cells was calculated according to the following formula: […]

[2] = tested on: Eca-109 cells; assay: MTT assay, photodynamic therapy on Eca-109 cells; type: cell-based, human
Text: as §1

[3] = tested on: CT26 cells; assay: MTT assay, photodynamic therapy on CT26 cells; type: cell-based, murine
Text: as §1

[4] = Solubility determination in water; type: physicochemical; conditions: each ml of water; room temperature; read-out: solubility in water (amount dissolved by each ml of water)
Method: The solubility of Photohexer-1 and Photohexer-2 in water was determined by conventional methods in the art.

[5] = tested on: the cell lines; assay: MTT assay, summary over the cell lines (photosensitizer alone); type: cell-based; conditions: without light irradiation; selected drug concentration range (0.8-6.4 μM)
Text: The cells in logarithmic growth phase were collected and inoculated on 24-well culture plates. When reaching 70%-80% confluence, cells were divided randomly into the following groups: control (the parallel control group without photosensitizer and irradiation), irradiation (irradiation treatment alone without photosensitizer); (photosensitizer treatment alone without irradiation), photodynamic treatment (treatment by photosensitizer in combination with irradiation). For the photosensitizer alone treatment group and photodynamic treatment group, an appropriate amount of Photohexer-1 (P-1) or Photohexer-2 (P-2) was respectively added away from light to give a final concentration of 0.8, 1.6, 3.2, 6.4 μM. Each group set 3 replicates. Cells were incubated with the active agent, different treatments were carried out according to the grouping. Three different light intensities were selected for the photodynamic treatment group, which were 2.6, 5.2 and 12.4 J/cm^2, respectively. After treatment and digestion of each group of cells, it was inoculated into a 96-well plate at 100 μL/well, and four wells were set for each treatment. […] After 15 min of dissolution, the absorbance value (OD value) was measured using a microplate reader and the relative survival rate of cells was calculated according to the following formula: […]

[6] = 0.8 μM alone treatment, without irradiation
[7] = 0.8 μM combined with 2.6 J/cm^2 light irradiation
[8] = 0.8 μM combined with 5.2 J/cm^2 light irradiation
[9] = 0.8 μM combined with 10.4 J/cm^2 light irradiation
[10] = 1.6 μM alone treatment, without irradiation
[11] = 1.6 μM combined with 2.6 J/cm^2 light irradiation
[12] = 1.6 μM combined with 5.2 J/cm^2 light irradiation
[13] = 1.6 μM combined with 10.4 J/cm^2 light irradiation
[14] = 3.2 μM alone treatment, without irradiation
[15] = 3.2 μM combined with 2.6 J/cm^2 light irradiation
[16] = 3.2 μM combined with 5.2 J/cm^2 light irradiation
[17] = 3.2 μM combined with 10.4 J/cm^2 light irradiation
[18] = 6.4 μM alone treatment, without irradiation
[19] = 6.4 μM combined with 2.6 J/cm^2 light irradiation
[20] = 6.4 μM combined with 5.2 J/cm^2 light irradiation
[21] = 6.4 μM combined with 10.4 J/cm^2 light irradiation

## C=CC1=C(C)c2cc3[nH]c(cc4nc(cc5[nH]c(cc1n2)c(C)c5CCC(=O)[O-])C(CCC(=O)[O-])=C4C)c(C)c3C(C)OCCCCCC.[Na+].[Na+] (stereo not drawn) [Photohexer P-1, 2-(1-hexyloxyethyl)-6,7-bis(propionatesodium)-1,3,5,8-tetramethyl-4-vinylporphyrin]
[1]; [6]
  Cell survival rate: 100.39 ± 0.20%
[1]; [7]
  Cell survival rate: 90.25 ± 2.16%
[1]; [8]
  Cell survival rate: 92.41 ± 0.63%
[1]; [9]
  Cell survival rate: 92.26 ± 1.16%
[1]; [10]
  Cell survival rate: 99.22 ± 1.37%
[1]; [11]
  Cell survival rate: 91.19 ± 2.89%
[1]; [12]
  Cell survival rate: 92.29 ± 0.15%
[1]; [13]
  Cell survival rate: 89.21 ± 0.24%
[1]; [14]
  Cell survival rate: 95.80 ± 1.59%
[1]; [15]
  Cell survival rate: 88.70 ± 1.24%
[1]; [16]
  Cell survival rate: 85.49 ± 0.99%
[1]; [17]
  Cell survival rate: 77.02 ± 0.04%
[1]; [18]
  Cell survival rate: 89.77 ± 4.99%
[1]; [19]
  Cell survival rate: 77.76 ± 0.22%
[1]; [20]
  Cell survival rate: 69.94 ± 0.56%
[1]; [21]
  Cell survival rate: 38.34 ± 0.13%
[1]
  killing effect of photodynamic therapy: obvious killing effect
[2]
  photosensitive toxicity compared between P-1 and P-2: significantly stronger toxicity than that of P-2
[2]; [6]
  Cell survival rate: 99.32 ± 3.43%
[2]; [7]
  Cell survival rate: 84.64 ± 3.79%
[2]; [8]
  Cell survival rate: 74.34 ± 4.23%
[2]; [9]
  Cell survival rate: 60.09 ± 4.54%
[2]; [10]
  Cell survival rate: 97.28 ± 2.48%
[2]; [11]
  Cell survival rate: 64.63 ± 2.39%
[2]; [12]
  Cell survival rate: 66.40 ± 3.12%
[2]; [13]
  Cell survival rate: 41.05 ± 3.47%
[2]; [14]
  Cell survival rate: 92.81 ± 1.37%
[2]; [15]
  Cell survival rate: 44.02 ± 2.05%
[2]; [16]
  Cell survival rate: 41.43 ± 1.27%
[2]; [17]
  Cell survival rate: 36.89 ± 2.26%
[2]; [18]
  Cell survival rate: 80.68 ± 1.04%
[2]; [19]
  Cell survival rate: 42.24 ± 1.01%
[2]; [20]
  Cell survival rate: 37.97 ± 1.04%
[2]; [21]
  Cell survival rate: 35.04 ± 1.34%
[3]
  toxic side effects compared between P-1 and P-2: higher than those of P-2
[3]; [6]
  Cell survival rate: 93.23 ± 3.43%
[3]; [7]
  Cell survival rate: 91.63 ± 3.46%
[3]; [8]
  Cell survival rate: 82.12 ± 4.98%
[3]; [9]
  Cell survival rate: 82.39 ± 4.63%
[3]; [10]
  Cell survival rate: 87.15 ± 2.45%
[3]; [11]
  Cell survival rate: 62.86 ± 2.29%
[3]; [12]
  Cell survival rate: 55.88 ± 2.95%
[3]; [13]
  Cell survival rate: 44.00 ± 3.29%
[3]; [14]
  Cell survival rate: 56.13 ± 1.69%
[3]; [15]
  Cell survival rate: 49.48 ± 2.06%
[3]; [16]
  Cell survival rate: 44.86 ± 1.57%
[3]; [17]
  Cell survival rate: 41.00 ± 2.66%
[3]; [18]
  Cell survival rate: 44.05 ± 1.26%
[3]; [19]
  Cell survival rate: 36.03 ± 1.17%
[3]; [20]
  Cell survival rate: 30.01 ± 1.07%
[3]; [21]
  Cell survival rate: 28.55 ± 1.47%
[4]
  solubility: ~3300 µg/mL
[5]
  cytotoxicity of alone treatment: did not produce significant cytotoxicity

## C=Cc1c(C)c2cc3nc(cc4[nH]c(cc5nc(cc1[nH]2)C(C)=C5C(C)OCCCCCC)c(C)c4CCC(=O)[O-])C(CCC(=O)[O-])=C3C.[Na+].[Na+] (stereo not drawn) [Photohexer P-2, 4-(1-hexyloxyethyl)-6,7-bis(propionatesodium)-1,3,5,8-tetramethyl-2-vinylporphyrin]
[1]
  photodynamic activity compared between P-1 and P-2: better than P-1
  killing effect of photodynamic therapy: obvious killing effect
[1]; [6]
  Cell survival rate: 100.80 ± 0.91%
[1]; [7]
  Cell survival rate: 83.27 ± 0.82%
[1]; [8]
  Cell survival rate: 76.47 ± 1.65%
[1]; [9]
  Cell survival rate: 66.13 ± 0.60%
[1]; [10]
  Cell survival rate: 97.25 ± 1.34%
[1]; [11]
  Cell survival rate: 70.77 ± 7.19%
[1]; [12]
  Cell survival rate: 60.00 ± 9.82%
[1]; [13]
  Cell survival rate: 49.32 ± 12.57%
[1]; [14]
  Cell survival rate: 82.72 ± 0.54%
[1]; [15]
  Cell survival rate: 52.91 ± 1.96%
[1]; [16]
  Cell survival rate: 41.72 ± 0.35%
[1]; [17]
  Cell survival rate: 34.58 ± 0.66%
[2]; [6]
  Cell survival rate: 100.38 ± 4.27%
[2]; [7]
  Cell survival rate: 96.96 ± 3.87%
[2]; [8]
  Cell survival rate: 75.83 ± 4.22%
[2]; [9]
  Cell survival rate: 59.89 ± 4.24%
[2]; [10]
  Cell survival rate: 95.76 ± 3.16%
[2]; [11]
  Cell survival rate: 86.66 ± 2.94%
[2]; [12]
  Cell survival rate: 70.66 ± 3.78%
[2]; [13]
  Cell survival rate: 51.36 ± 3.67%
[2]; [14]
  Cell survival rate: 94.07 ± 2.58%
[2]; [15]
  Cell survival rate: 79.33 ± 2.24%
[2]; [16]
  Cell survival rate: 56.40 ± 2.33%
[2]; [17]
  Cell survival rate: 40.90 ± 2.34%
[2]; [18]
  Cell survival rate: 84.49 ± 1.32%
[2]; [19]
  Cell survival rate: 83.57 ± 1.12%
[2]; [20]
  Cell survival rate: 33.91 ± 1.07%
[2]; [21]
  Cell survival rate: 33.91 ± 1.01%
[3]
  photoactivity compared between P-1 and P-2: stronger than that of P-1
[3]; [6]
  Cell survival rate: 94.08 ± 4.27%
[3]; [7]
  Cell survival rate: 83.97 ± 3.96%
[3]; [8]
  Cell survival rate: 82.55 ± 4.77%
[3]; [9]
  Cell survival rate: 70.66 ± 4.66%
[3]; [10]
  Cell survival rate: 92.09 ± 3.56%
[3]; [11]
  Cell survival rate: 61.29 ± 2.78%
[3]; [12]
  Cell survival rate: 49.85 ± 3.55%
[3]; [13]
  Cell survival rate: 38.89 ± 3.86%
[3]; [14]
  Cell survival rate: 76.30 ± 2.28%
[3]; [15]
  Cell survival rate: 44.29 ± 2.41%
[3]; [16]
  Cell survival rate: 39.69 ± 2.27%
[3]; [17]
  Cell survival rate: 26.01 ± 2.38%
[3]; [18]
  Cell survival rate: 50.49 ± 1.03%
[3]; [19]
  Cell survival rate: 34.11 ± 1.02%
[3]; [20]
  Cell survival rate: 28.61 ± 1.09%
[3]; [21]
  Cell survival rate: 18.82 ± 1.01%
[4]
  solubility: ~10000 µg/mL
[5]
  cytotoxicity of alone treatment: did not produce significant cytotoxicity
